This passage reports Kd results from ChEMBL document CHEMBL3991601, “The target landscape of clinical kinase drugs” (Science, 2017).

pKd: −log10 of the molar value. Counter-ions that a name gives are not always drawn. Calls of active or inactive are those of the source. Rule as the data show it, for most assays here: actives have a measured Kd and inactives only a lower limit.

The target of test [1] is T1, Mitogen-activated protein kinase kinase kinase 3 (Homo sapiens, UniProt Q99759).
T1 sequence (Q99759 whole entry): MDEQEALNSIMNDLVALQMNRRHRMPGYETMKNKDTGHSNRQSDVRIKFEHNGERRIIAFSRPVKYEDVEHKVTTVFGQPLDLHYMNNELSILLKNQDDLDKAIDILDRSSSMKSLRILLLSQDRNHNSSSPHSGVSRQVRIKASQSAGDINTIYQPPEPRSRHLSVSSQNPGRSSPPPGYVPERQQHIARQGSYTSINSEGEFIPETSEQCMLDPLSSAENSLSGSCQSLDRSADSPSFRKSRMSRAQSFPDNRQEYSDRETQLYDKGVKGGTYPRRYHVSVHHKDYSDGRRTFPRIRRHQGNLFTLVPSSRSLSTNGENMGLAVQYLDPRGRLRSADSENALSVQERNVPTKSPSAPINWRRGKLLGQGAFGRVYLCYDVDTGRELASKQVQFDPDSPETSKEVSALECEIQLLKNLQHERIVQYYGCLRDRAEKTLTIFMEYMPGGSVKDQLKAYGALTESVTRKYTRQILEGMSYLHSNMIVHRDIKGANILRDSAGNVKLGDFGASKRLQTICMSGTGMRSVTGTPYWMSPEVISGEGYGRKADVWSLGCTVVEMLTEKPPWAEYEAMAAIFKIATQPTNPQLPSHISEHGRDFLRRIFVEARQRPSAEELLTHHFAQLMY

Test [2] addresses T2, Mitogen-activated protein kinase kinase kinase kinase 3 (Homo sapiens, UniProt Q8IVH8).
T2 sequence (Q8IVH8 whole entry): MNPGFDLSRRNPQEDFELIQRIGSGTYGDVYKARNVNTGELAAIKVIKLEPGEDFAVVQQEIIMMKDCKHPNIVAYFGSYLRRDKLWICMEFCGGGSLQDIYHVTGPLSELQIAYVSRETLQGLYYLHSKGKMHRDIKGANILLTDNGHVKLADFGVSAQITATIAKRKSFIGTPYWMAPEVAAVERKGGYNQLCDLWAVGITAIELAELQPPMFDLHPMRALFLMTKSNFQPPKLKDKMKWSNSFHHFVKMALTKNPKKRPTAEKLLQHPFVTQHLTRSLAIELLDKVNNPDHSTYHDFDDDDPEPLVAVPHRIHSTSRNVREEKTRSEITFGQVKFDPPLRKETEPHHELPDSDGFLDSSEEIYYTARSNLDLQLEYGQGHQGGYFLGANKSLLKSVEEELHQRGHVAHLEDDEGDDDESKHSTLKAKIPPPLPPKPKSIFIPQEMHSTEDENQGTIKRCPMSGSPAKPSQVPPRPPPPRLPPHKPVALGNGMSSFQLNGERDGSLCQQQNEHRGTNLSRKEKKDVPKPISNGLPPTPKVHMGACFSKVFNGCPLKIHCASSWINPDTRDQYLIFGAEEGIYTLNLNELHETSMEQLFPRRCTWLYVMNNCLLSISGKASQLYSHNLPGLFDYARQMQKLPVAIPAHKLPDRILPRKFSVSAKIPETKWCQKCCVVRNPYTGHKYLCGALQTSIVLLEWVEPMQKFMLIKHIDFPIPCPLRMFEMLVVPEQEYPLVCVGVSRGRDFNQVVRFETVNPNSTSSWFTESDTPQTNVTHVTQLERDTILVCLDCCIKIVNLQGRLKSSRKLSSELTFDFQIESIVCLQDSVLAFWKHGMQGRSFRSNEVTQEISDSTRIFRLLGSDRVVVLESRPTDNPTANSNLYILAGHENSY

Test [3] has as its target Receptor-interacting serine/threonine-protein kinase 3 (Homo sapiens, UniProt Q9Y572).
Test [4] addresses T3, Tyrosine-protein kinase Tec (Homo sapiens, UniProt P42680).
T3 sequence (P42680 whole entry): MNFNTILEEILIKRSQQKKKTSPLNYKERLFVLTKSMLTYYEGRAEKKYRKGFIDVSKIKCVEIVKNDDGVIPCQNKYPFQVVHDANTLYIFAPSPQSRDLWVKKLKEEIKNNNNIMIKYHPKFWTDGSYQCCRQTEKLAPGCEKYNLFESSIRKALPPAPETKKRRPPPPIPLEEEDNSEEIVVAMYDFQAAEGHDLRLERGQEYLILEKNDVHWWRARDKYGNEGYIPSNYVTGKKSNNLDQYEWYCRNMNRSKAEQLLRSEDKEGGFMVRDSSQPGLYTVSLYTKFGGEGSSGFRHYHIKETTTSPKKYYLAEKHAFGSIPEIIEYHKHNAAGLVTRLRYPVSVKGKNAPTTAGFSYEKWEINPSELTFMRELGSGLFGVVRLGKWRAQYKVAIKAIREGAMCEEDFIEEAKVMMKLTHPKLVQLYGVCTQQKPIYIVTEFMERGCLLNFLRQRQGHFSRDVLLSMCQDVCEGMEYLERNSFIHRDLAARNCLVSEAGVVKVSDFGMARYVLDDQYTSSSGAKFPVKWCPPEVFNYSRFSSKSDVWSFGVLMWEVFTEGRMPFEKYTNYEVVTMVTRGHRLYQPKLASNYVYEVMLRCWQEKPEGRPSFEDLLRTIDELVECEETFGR

For test [5], the target named is T4, Tyrosine--tRNA ligase, cytoplasmic (Homo sapiens, UniProt P54577).
T4 sequence (P54577 whole entry): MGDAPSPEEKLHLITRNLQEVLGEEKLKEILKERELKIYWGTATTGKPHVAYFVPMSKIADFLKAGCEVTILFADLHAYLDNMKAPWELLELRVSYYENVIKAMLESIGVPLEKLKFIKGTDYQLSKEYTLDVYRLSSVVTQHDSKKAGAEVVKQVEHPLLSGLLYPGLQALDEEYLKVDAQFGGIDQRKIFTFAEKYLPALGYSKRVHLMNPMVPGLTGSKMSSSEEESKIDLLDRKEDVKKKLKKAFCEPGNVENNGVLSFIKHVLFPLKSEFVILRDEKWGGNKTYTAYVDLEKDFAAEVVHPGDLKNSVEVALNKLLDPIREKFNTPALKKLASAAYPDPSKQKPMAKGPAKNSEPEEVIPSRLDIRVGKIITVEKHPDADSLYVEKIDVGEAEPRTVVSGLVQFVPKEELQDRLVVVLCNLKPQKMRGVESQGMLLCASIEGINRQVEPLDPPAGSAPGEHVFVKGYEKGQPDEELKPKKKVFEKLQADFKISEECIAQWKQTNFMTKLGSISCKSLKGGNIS

Test [6] deals with Dual specificity testis-specific protein kinase 1 (Homo sapiens, UniProt Q15569).
Sequence of Dual specificity testis-specific protein kinase 1 (Q15569 whole entry): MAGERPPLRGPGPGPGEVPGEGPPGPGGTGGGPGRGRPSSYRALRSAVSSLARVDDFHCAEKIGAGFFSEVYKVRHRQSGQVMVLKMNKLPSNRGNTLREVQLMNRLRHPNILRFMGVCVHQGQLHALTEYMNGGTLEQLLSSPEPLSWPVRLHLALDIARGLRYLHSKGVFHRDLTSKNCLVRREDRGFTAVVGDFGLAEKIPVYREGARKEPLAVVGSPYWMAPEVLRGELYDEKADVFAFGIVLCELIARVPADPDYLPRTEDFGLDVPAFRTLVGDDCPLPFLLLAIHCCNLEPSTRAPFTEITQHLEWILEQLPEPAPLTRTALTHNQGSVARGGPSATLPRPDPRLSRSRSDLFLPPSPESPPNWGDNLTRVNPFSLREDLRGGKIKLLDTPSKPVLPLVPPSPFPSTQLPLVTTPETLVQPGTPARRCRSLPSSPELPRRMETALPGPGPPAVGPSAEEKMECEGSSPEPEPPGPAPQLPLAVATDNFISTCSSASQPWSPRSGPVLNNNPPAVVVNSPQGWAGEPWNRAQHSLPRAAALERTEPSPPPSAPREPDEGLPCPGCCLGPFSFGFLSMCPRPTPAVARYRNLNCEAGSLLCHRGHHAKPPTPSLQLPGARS
Also: in the data inactive means no Kd found up to 30 µM.

Sequence of Receptor-interacting serine/threonine-protein kinase 3 (Q9Y572 whole entry): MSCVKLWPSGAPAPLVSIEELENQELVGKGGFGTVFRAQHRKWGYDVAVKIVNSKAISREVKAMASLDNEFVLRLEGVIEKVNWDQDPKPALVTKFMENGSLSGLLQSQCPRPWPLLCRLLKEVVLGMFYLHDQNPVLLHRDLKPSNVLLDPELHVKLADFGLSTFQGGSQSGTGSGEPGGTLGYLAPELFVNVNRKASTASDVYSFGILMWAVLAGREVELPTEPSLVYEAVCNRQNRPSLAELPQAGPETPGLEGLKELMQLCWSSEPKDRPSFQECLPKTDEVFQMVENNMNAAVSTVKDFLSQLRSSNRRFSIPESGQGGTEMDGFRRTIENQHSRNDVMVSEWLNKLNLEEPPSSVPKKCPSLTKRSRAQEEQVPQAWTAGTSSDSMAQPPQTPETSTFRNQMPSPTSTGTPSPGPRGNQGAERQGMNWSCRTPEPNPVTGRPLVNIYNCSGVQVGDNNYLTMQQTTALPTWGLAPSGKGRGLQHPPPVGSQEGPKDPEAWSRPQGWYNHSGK

Usually Kd stands for the equilibrium constant for the complex coming apart. Consider `C[C@@H](Oc1cc(C(=O)Nc2ccc(C(=O)N3CCN(C)CC3)cc2)nnc1N)c1c(Cl)ccc(F)c1Cl`, for which the Kd in test [1], in test [2], in test [3], in test [4] and in test [5] was > 30 µM (inactive) throughout.

The term pKd denotes the Kd on a negative log10 scale, so that one unit is a factor of ten. As to `C[C@H]1CNCCCN1S(=O)(=O)c1cccc2cncc(F)c12`, the Kd in test [1], in test [3], in test [4] and in test [6] was > 30 µM (inactive) each time. For the same compound, the pKd in test [2] was 5.49.

As for `CC(=O)c1cnc2ccc(-c3cc(Cl)c(O)c(Cl)c3)nc2c1N[C@H]1CC[C@H](CN(C)C)CC1`, the Kd in test [2], in test [4] and in test [5] was > 30 µM (inactive) each time. This compound also showed a pKd in test [3] of 6.49.

As to `CCNC(=O)C#Cc1ccc2c(c1)NC(=O)/C2=C(\Nc1ccc(CN(C)C)cc1)c1ccccc1`, the Kd in test [1] is > 30 µM (inactive); in test [2], > 30 µM (inactive); in test [3] it was > 30 µM (inactive); in test [4], 0.885 µM (active); in test [6], > 30 µM (inactive); in test [5], > 30 µM (inactive).

On to `C=CC(=O)N1CCC[C@H](n2c(=O)n(-c3ccc(Oc4ccccc4)cc3)c3c(N)ncnc32)C1`, for which the Kd in test [1], in test [2], in test [3], in test [6] and in test [5] was > 30 µM (inactive) in each case. In addition, the pKd in test [4] was 8.22.

With `COCc1c(-c2ccc(NC(=O)Nc3cc(C(F)(F)F)ccc3F)c(F)c2)c2c(N)ncnn2c1CN1CCOCC1`, the Kd in test [1], in test [2], in test [3], in test [4], in test [6] and in test [5] was > 30 µM (inactive) throughout.

Consider `Nc1ncnc2c1c(-c1cccc(OCc3ccccc3)c1)cn2[C@H]1C[C@@H](CN2CCC2)C1` [AEW-541], for which the Kd in test [1] is > 30 µM (inactive); in test [2] it was > 30 µM (inactive); in test [3], 6.45 µM (active); in test [4], > 30 µM (inactive); in test [5], > 30 µM (inactive).

For the compound `O=C(Nc1c[nH]nc1-c1nc2cc(CN3CCOCC3)ccc2[nH]1)NC1CC1` [AT-9283], the Kd in test [1] is 0.345 µM (active); in test [2], > 30 µM (inactive); in test [3], > 30 µM (inactive); in test [6] it was > 30 µM (inactive); in test [5], > 30 µM (inactive).

`CNC(=O)c1ccccc1Sc1ccc2c(/C=C/c3ccccn3)n[nH]c2c1` [AXITINIB]: the Kd in test [3] and in test [5] was > 30 µM (inactive) each time.

Regarding `Cc1cc(C(=O)NOCCO)c(Nc2ccc(I)cc2F)n(C)c1=O` [AZD-8330], the Kd in test [1], in test [2], in test [3], in test [4] and in test [5] was > 30 µM (inactive) in each case.

For `CCS(=O)(=O)N1CCN(c2ccc(Nc3ncc(C(N)=O)c(NC4CC4)n3)cc2)CC1` [Cerdulatinib Hydrochloride], the Kd was 1.09 µM (active) in test [1]; 0.033 µM (active) in test [2]; > 30 µM (inactive) in test [3]; > 30 µM (inactive) in test [4]; > 30 µM (inactive) in test [6].

As to `CC(C)(C)c1nc(-c2cccc(NS(=O)(=O)c3c(F)cccc3F)c2F)c(-c2ccnc(N)n2)s1` [DABRAFENIB], the Kd in test [2] is > 30 µM (inactive); in test [3], 0.283 µM (active); in test [4] it was > 30 µM (inactive); in test [6], > 30 µM (inactive); in test [5], > 30 µM (inactive).

With `Cn1cc(C2=C(c3cn(C4CCN(Cc5ccccn5)CC4)c4ccccc34)C(=O)NC2=O)c2ccccc21` [ENZASTAURIN], the Kd in test [3] and in test [5] was > 30 µM (inactive) in each case.

On to `C[C@@H](Oc1cc(-n2cnc3ccc(CN4CCN(C)CC4)cc32)sc1C(N)=O)c1ccccc1C(F)(F)F` [GSK-461364], for which the Kd in test [3] and in test [5] was > 30 µM (inactive) in each case.

Turning to `CCn1cc(-c2ccnc3[nH]c(-c4cccc(CN(C)C)c4)cc23)c(-c2ccc(NC(=O)N(C)C)cc2)n1` [GSK-1070916], the Kd in test [1], in test [3], in test [4] and in test [5] was > 30 µM (inactive) each time.

Take `Cc1[nH]c(/C=C2\C(=O)Nc3ccccc32)c(C)c1CCC(=O)O` [ORANTINIB]: the Kd in test [1], in test [3], in test [4], in test [6] and in test [5] was > 30 µM (inactive) in each case.

On to `NC(=O)c1c(OCc2c(F)cc(Br)cc2F)nsc1NC(=O)NCCCCN1CCCC1` [OSI-632], for which the Kd in test [3] is > 30 µM (inactive); in test [4] it was > 30 µM (inactive); in test [6], 1.42 µM (active); in test [5], > 30 µM (inactive).

In the case of `O=C(NOCCO)c1cc(CN2OCCCC2=O)c(F)c(F)c1Nc1ccc(I)cc1F` [RO-4987655], the Kd in test [3] and in test [5] was > 30 µM (inactive) in each case.

`N#CC[C@H](C1CCCC1)n1cc(-c2ncnc3[nH]ccc23)cn1` [RUXOLITINIB]: the Kd in test [3] and in test [5] was > 30 µM (inactive) throughout.

As for `Cn1ncc(Cl)c1-c1cc(C(=O)N[C@H](CN)Cc2ccc(F)c(F)c2)oc1Cl` [UPROSERTIB], the Kd in test [1], in test [2], in test [3], in test [4] and in test [5] was > 30 µM (inactive) in each case.
